Data from PubChem BioAssay (NCI).
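Assay format: 96-well plates, 48-hour exposure. The concentration for 50% growth inhibition is given as GI50. TGI is the concentration that stops growth completely.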

Tests used:
Assay in all cases: inhibition of tumour cell growth, NCI panel, 48 h
K-562 leukemia = tested on: K-562 leukemia
MDA-MB-231 breast = tested on: MDA-MB-231 breast
PC-3 prostate = tested on: PC-3 prostate
786-0 renal = tested on: 786-0 renal
NCI-H522 lung = tested on: NCI-H522 lung
SW-620 colon = tested on: SW-620 colon
A549 NSCLC = tested on: A549 NSCLC
HT29 colon = tested on: HT29 colon
SK-OV-3 ovarian = tested on: SK-OV-3 ovarian
BT-549 breast = tested on: BT-549 breast

Compound: CC1(C)CC[C@]2(C(=O)O)CC[C@]3(C)[C@H](CC[C@@H]4[C@@]5(C)CCC(=O)C(C)(C)[C@@H]5CC[C@]43C)[C@H]2[C@H]1OC(=O)C(F)(F)F
- GI50 (K-562 leukemia): 3.61 µM
- TGI (K-562 leukemia): 20.9 µM
- GI50 (MDA-MB-231 breast): 13.5 µM
- TGI (MDA-MB-231 breast): 31.4 µM
- GI50 (PC-3 prostate): 3.98 µM
- TGI (PC-3 prostate): 17.9 µM
- GI50 (786-0 renal): 14.3 µM
- TGI (786-0 renal): 29.5 µM
- GI50 (NCI-H522 lung): 12.6 µM
- TGI (NCI-H522 lung): 29.1 µM
- GI50 (SW-620 colon): 11.6 µM
- TGI (SW-620 colon): 28.1 µM
- GI50 (A549 NSCLC): 9.66 µM
- TGI (A549 NSCLC): 31.6 µM
- GI50 (HT29 colon): 4.06 µM
- TGI (HT29 colon): 16.7 µM
- GI50 (SK-OV-3 ovarian): 13.4 µM
- TGI (SK-OV-3 ovarian): 54 µM
- GI50 (BT-549 breast): 9.3 µM
- TGI (BT-549 breast): 22.3 µM

Compound: CC(C)CC(=O)CC(O)C(Cl)(Cl)Cl (stereo not given)
- TGI (K-562 leukemia): > 100 µM
- TGI (MDA-MB-231 breast): > 100 µM
- TGI (PC-3 prostate): > 100 µM
- TGI (786-0 renal): > 100 µM
- TGI (NCI-H522 lung): > 100 µM
- TGI (SW-620 colon): > 100 µM
- TGI (A549 NSCLC): > 100 µM
- TGI (HT29 colon): > 100 µM
- TGI (SK-OV-3 ovarian): > 100 µM
- TGI (BT-549 breast): > 100 µM

Compound: COc1ccc(-c2nn(-c3cccc(NC(=O)Nc4cccc(C(F)(F)F)c4)c3)cc2-c2ccncc2)cc1Cl
- GI50 (K-562 leukemia): 1.92 µM
- TGI (K-562 leukemia): > 100 µM
- GI50 (MDA-MB-231 breast): 2.18 µM
- TGI (MDA-MB-231 breast): 19.8 µM
- GI50 (PC-3 prostate): 0.986 µM
- TGI (PC-3 prostate): 8.54 µM
- GI50 (786-0 renal): 2.28 µM
- TGI (786-0 renal): 10.1 µM
- GI50 (NCI-H522 lung): 1.6 µM
- TGI (NCI-H522 lung): 6.07 µM
- GI50 (SW-620 colon): 3.37 µM
- TGI (SW-620 colon): > 100 µM
- GI50 (A549 NSCLC): 1.83 µM
- TGI (A549 NSCLC): > 100 µM
- GI50 (HT29 colon): 2.24 µM
- TGI (HT29 colon): 49.1 µM
- GI50 (SK-OV-3 ovarian): 3.58 µM
- TGI (SK-OV-3 ovarian): > 100 µM
- GI50 (BT-549 breast): 1.68 µM
- TGI (BT-549 breast): 4.55 µM

Compound: COc1cccc2c(Nc3ccc(C(=O)NCCN(C)C)cc3)cc(-c3ccccc3)nc12
- GI50 (K-562 leukemia): 10.8 µM
- TGI (K-562 leukemia): 31.5 µM
- GI50 (MDA-MB-231 breast): 4.15 µM
- TGI (MDA-MB-231 breast): 19.4 µM
- GI50 (PC-3 prostate): 13.3 µM
- TGI (PC-3 prostate): 40.5 µM
- GI50 (786-0 renal): 2.26 µM
- TGI (786-0 renal): 14.2 µM
- GI50 (NCI-H522 lung): 16.6 µM
- TGI (NCI-H522 lung): 32.4 µM
- GI50 (SW-620 colon): 14 µM
- TGI (SW-620 colon): 33.4 µM
- GI50 (A549 NSCLC): 16 µM
- TGI (A549 NSCLC): 33.1 µM
- GI50 (HT29 colon): 28.5 µM
- TGI (HT29 colon): > 100 µM
- GI50 (SK-OV-3 ovarian): 29.4 µM
- TGI (SK-OV-3 ovarian): 71.2 µM
- GI50 (BT-549 breast): 20.3 µM
- TGI (BT-549 breast): 44.8 µM

Compound: CC(C)(C)n1cc(-c2ccnc(NCCNS(=O)(=O)c3cccc4ccccc34)c2)c(-c2cccc(F)c2)n1
- GI50 (K-562 leukemia): 5.9 µM
- TGI (K-562 leukemia): 82.2 µM
- GI50 (MDA-MB-231 breast): 24.2 µM
- TGI (MDA-MB-231 breast): > 100 µM
- GI50 (PC-3 prostate): 4.71 µM
- TGI (PC-3 prostate): 54.4 µM
- GI50 (786-0 renal): 2.44 µM
- TGI (786-0 renal): 6.75 µM
- GI50 (NCI-H522 lung): 15.5 µM
- TGI (NCI-H522 lung): 44.5 µM
- GI50 (SW-620 colon): 16.6 µM
- TGI (SW-620 colon): 42.3 µM
- GI50 (A549 NSCLC): 16.7 µM
- TGI (A549 NSCLC): 76.6 µM
- GI50 (HT29 colon): 5.25 µM
- TGI (HT29 colon): 23.9 µM
- GI50 (SK-OV-3 ovarian): 26 µM
- TGI (SK-OV-3 ovarian): > 100 µM
- GI50 (BT-549 breast): 10.6 µM
- TGI (BT-549 breast): 26.7 µM

Compound: O=C(CC(=O)c1ccccc1NC1=Cc2ccccc2C(=O)C1=O)C(=O)NC1=C(Cl)C(=O)c2ccccc2C1=O
- TGI (K-562 leukemia): 9.7 µM
- TGI (MDA-MB-231 breast): 8.95 µM
- TGI (PC-3 prostate): 6.69 µM
- TGI (786-0 renal): 10.7 µM
- TGI (NCI-H522 lung): 4.79 µM
- TGI (SW-620 colon): 7.98 µM
- TGI (A549 NSCLC): 16.5 µM
- TGI (HT29 colon): 26.1 µM
- TGI (SK-OV-3 ovarian): > 83.8 µM
- TGI (BT-549 breast): 9.14 µM

Compound: CC(C)[C@@H](CS(=O)(=O)C(C)C)N1C(=O)[C@@](C)(CC(=O)O)C[C@H](c2cccc(Cl)c2)[C@H]1c1ccc(Cl)cc1
- GI50 (K-562 leukemia): 18.3 µM
- TGI (K-562 leukemia): > 100 µM
- GI50 (MDA-MB-231 breast): 18.3 µM
- TGI (MDA-MB-231 breast): 39.2 µM
- GI50 (PC-3 prostate): 5.75 µM
- TGI (PC-3 prostate): > 69.3 µM
- GI50 (786-0 renal): 20.8 µM
- TGI (786-0 renal): 75.2 µM
- GI50 (NCI-H522 lung): 17.8 µM
- TGI (NCI-H522 lung): 51.5 µM
- GI50 (SW-620 colon): 25.5 µM
- TGI (SW-620 colon): > 100 µM
- GI50 (A549 NSCLC): 0.464 µM
- TGI (A549 NSCLC): 19.8 µM
- GI50 (HT29 colon): 26.6 µM
- TGI (HT29 colon): > 90.1 µM
- GI50 (SK-OV-3 ovarian): 19.2 µM
- TGI (SK-OV-3 ovarian): 73.2 µM
- GI50 (BT-549 breast): 12.9 µM
- TGI (BT-549 breast): 40.3 µM

Compound: C=C1CO[C@@H]2C[C@@H]1CCC1(C)OC1CC/C(C)=C/CC[C@@]2(C)O (stereo not given in full)
- GI50 (K-562 leukemia): 0.302 µM
- TGI (K-562 leukemia): 7.02 µM
- GI50 (MDA-MB-231 breast): 14.9 µM
- TGI (MDA-MB-231 breast): 36.1 µM
- GI50 (PC-3 prostate): 18.5 µM
- TGI (PC-3 prostate): 36.9 µM
- GI50 (786-0 renal): > 20.3 µM
- TGI (786-0 renal): > 53.5 µM
- GI50 (NCI-H522 lung): 30.5 µM
- TGI (NCI-H522 lung): > 76.9 µM
- GI50 (SW-620 colon): 15.8 µM
- TGI (SW-620 colon): 38.4 µM
- GI50 (A549 NSCLC): 17 µM
- TGI (A549 NSCLC): 34.9 µM
- GI50 (HT29 colon): 24.5 µM
- TGI (HT29 colon): > 71 µM
- GI50 (SK-OV-3 ovarian): > 100 µM
- TGI (SK-OV-3 ovarian): > 100 µM
- GI50 (BT-549 breast): 26.4 µM
- TGI (BT-549 breast): 61.5 µM

Compound: C=C1C(=O)O[C@H]2[C@H]1CC(=O)/C(C)=C\CC[C@@]1(C)O[C@@H]21
- GI50 (K-562 leukemia): 0.842 µg/mL
- TGI (K-562 leukemia): 4.15 µg/mL
- GI50 (MDA-MB-231 breast): 4.58 µg/mL
- TGI (MDA-MB-231 breast): 8.82 µg/mL
- GI50 (PC-3 prostate): 4.53 µg/mL
- TGI (PC-3 prostate): 8.7 µg/mL
- GI50 (786-0 renal): 1.06 µg/mL
- TGI (786-0 renal): 4.51 µg/mL
- GI50 (NCI-H522 lung): 0.411 µg/mL
- TGI (NCI-H522 lung): 0.957 µg/mL
- GI50 (SW-620 colon): 1.06 µg/mL
- TGI (SW-620 colon): 6.15 µg/mL
- GI50 (A549 NSCLC): 5.21 µg/mL
- TGI (A549 NSCLC): 11.3 µg/mL
- GI50 (HT29 colon): 1.29 µg/mL
- TGI (HT29 colon): 4.32 µg/mL
- GI50 (SK-OV-3 ovarian): 7.86 µg/mL
- TGI (SK-OV-3 ovarian): 17.4 µg/mL
- GI50 (BT-549 breast): 3.41 µg/mL
- TGI (BT-549 breast): 7 µg/mL

Compound: CCOC(=O)c1cnc2c(cnn2CC)c1NN=C(C)C
- GI50 (K-562 leukemia): 59.6 µM
- TGI (K-562 leukemia): > 100 µM
- GI50 (MDA-MB-231 breast): 45.1 µM
- TGI (MDA-MB-231 breast): > 100 µM
- GI50 (PC-3 prostate): 37.5 µM
- TGI (PC-3 prostate): > 100 µM
- GI50 (786-0 renal): 29.6 µM
- TGI (786-0 renal): > 100 µM
- GI50 (NCI-H522 lung): 73.2 µM
- TGI (NCI-H522 lung): > 100 µM
- GI50 (SW-620 colon): 83.8 µM
- TGI (SW-620 colon): > 100 µM
- GI50 (A549 NSCLC): 40.1 µM
- TGI (A549 NSCLC): > 100 µM
- GI50 (HT29 colon): 23.3 µM
- TGI (HT29 colon): > 100 µM
- GI50 (SK-OV-3 ovarian): 55.7 µM
- TGI (SK-OV-3 ovarian): > 100 µM
- GI50 (BT-549 breast): 46.5 µM
- TGI (BT-549 breast): > 100 µM

Compound: C=C1C(=O)O[C@H]2[C@H]1CC/C(COC(=O)C(=O)c1cn(C)c3ccc(OC)cc13)=C\CC[C@@]1(C)O[C@@H]21
- GI50 (K-562 leukemia): 5.97 µM
- TGI (K-562 leukemia): > 61.3 µM
- GI50 (MDA-MB-231 breast): 4.39 µM
- TGI (MDA-MB-231 breast): 10.6 µM
- GI50 (PC-3 prostate): 5.89 µM
- TGI (PC-3 prostate): 10.8 µM
- GI50 (786-0 renal): 3.84 µM
- TGI (786-0 renal): 7.56 µM
- GI50 (NCI-H522 lung): 5.02 µM
- TGI (NCI-H522 lung): 9.16 µM
- GI50 (SW-620 colon): 3.53 µM
- TGI (SW-620 colon): 14.5 µM
- GI50 (A549 NSCLC): 7.61 µM
- TGI (A549 NSCLC): 14.2 µM
- GI50 (HT29 colon): 2.23 µM
- TGI (HT29 colon): 5.4 µM
- GI50 (SK-OV-3 ovarian): 13.6 µM
- TGI (SK-OV-3 ovarian): 29.3 µM
- GI50 (BT-549 breast): 1.75 µM
- TGI (BT-549 breast): 3.28 µM

Compound: Cc1nc2ccc(NCCN(C)C)c3c(=O)c4cc(O)ccc4n1c23
- TGI (K-562 leukemia): 4.25 µM
- TGI (MDA-MB-231 breast): 13.2 µM
- TGI (PC-3 prostate): 4.86 µM
- TGI (786-0 renal): 10.5 µM
- TGI (NCI-H522 lung): 1.98 µM
- TGI (SW-620 colon): 4.53 µM
- TGI (A549 NSCLC): 3.39 µM
- TGI (HT29 colon): 2.4 µM
- TGI (SK-OV-3 ovarian): 8.98 µM
- TGI (BT-549 breast): 19 µM
